pIC50: −log10 of the molar value. In brackets after ≈: the same amount, converted by molar mass. Activity calls are given as the source filed them. No cut-off for these calls is given here.

These results are taken from ChEMBL document CHEMBL5252589, “Bioactive Piperazic Acid-Bearing Cyclodepsipeptides, Lydiamycins E-H, from an Endophytic Streptomyces sp. Associated with Cinnamomum cassia” (J Nat Prod, 2023).

The test system of test [1] is PANC-1. As to the kind of experiment: Cytotoxicity against human PANC-1 cells assessed as inhibition of cell growth incubated for 72 hrs by MTT assay. The class given is functional, cell-based. The settings on record: PANC-1, 72 h. Background: Tetrazolium assays rely on reduction of a dye to a coloured formazan, in cell work by metabolically active cells.
Test [2] relates to PANC-1. Briefly: Antimetastatic activity in human PANC-1 cells assessed as suppression of cell migration incubated for 24 to 48 hrs by inverted microscope based scratch wound healing assay. The conditions noted are these: dose 40-80 µM, time 24-48 hrs. It is filed as functional.
For test [3], the system named is PANC-1. As to the kind of experiment: Antimetastatic activity in human PANC-1 cells assessed as suppression of cell invasion at 40 to 80 uM incubated for 24 hrs by crystal violet staining based transwell assay. It is filed as functional. The settings on record: dose 40-80 µM.
Test [4] deals with Mycobacterium tuberculosis. As to the kind of experiment: Antibacterial activity against Mycobacterium tuberculosis H37Rv ATCC 27294 assessed as inhibition of bacterial growth. It is filed as functional.
In test [5] the test system is PANC-1. Briefly: Antimetastatic activity in human PANC-1 cells assessed as inhibition of cell migration at 80 uM incubated for 48 hrs by inverted microscope based scratch wound healing assay relative to control. The class given is functional.
The test system of test [6] is PANC-1. Briefly: Antimetastatic activity in human PANC-1 cells assessed as inhibition of cell migration at 40 uM incubated for 24 hrs by inverted microscope based scratch wound healing assay relative to control. The class given is functional.
The subject of test [7] is PANC-1. Briefly: Antimetastatic activity in human PANC-1 cells assessed as inhibition of cell migration at 40 uM incubated for 48 hrs by inverted microscope based scratch wound healing assay relative to control. The class given is functional.
The subject of test [8] is PANC-1. Briefly: Antimetastatic activity in human PANC-1 cells assessed as inhibition of cell migration at 80 uM incubated for 24 hrs by inverted microscope based scratch wound healing assay relative to control. The class given is functional.
Test [9] relates to Mycobacterium tuberculosis. As to the kind of experiment: Antibacterial activity against Mycobacterium tuberculosis H37Rv. The class given is functional.
For test [10], the system named is Mycobacterium tuberculosis. As to the kind of experiment: Antibacterial activity against Mycobacterium tuberculosis mc2 6230. It is filed as functional.

What is called pIC50 is the IC50 on a negative log10 scale, so that one unit is a factor of ten. As usually defined, the MIC is the lowest concentration that inhibits growth of the organism. Consider `CC(C)C[C@H]1NC(=O)[C@@H](NC(=O)[C@@H]2CCC=NN2C(=O)CCC(=O)O)COC(=O)[C@@H]2CCCNN2C(=O)[C@H](C)NC1=O`, for which, in the test on PANC-1 [1], the pIC50 was under 4.00. Besides, in the test on PANC-1 [2], the Activity result was “Dose-Dependent Effect”. Further, the outcome in the test on PANC-1 [3] was Active. Also, the MIC in [4] was over 20 mg/L.

For the molecule `CCCC[C@H](CC(=O)N1N=CCC[C@H]1C(=O)N[C@H]1COC(=O)[C@@H]2CCCNN2C(=O)[C@H](C)NC(=O)[C@@H](CC(C)C)NC1=O)C(=O)O`, in the test with PANC-1 [1], the pIC50 was under 4.00. In the test with PANC-1 [2], the Activity entry is “Dose-Dependent Effect”. Moreover, the outcome with PANC-1 [3] was Active. For the same molecule, in test [4], the MIC is over 20 mg/L.

In the case of `CC(C)C[C@H]1NC(=O)[C@@H](NC(=O)[C@@H]2CCC=NN2)COC(=O)[C@@H]2CCCNN2C(=O)[C@H](C)NC1=O`, the pIC50 in the test with PANC-1 [1] is under 4.00. The Activity entry in the test with PANC-1 [2] is “Dose-Dependent Effect”. Moreover, the result in the test on PANC-1 [3] was Active. Besides, the MIC in test [4] is over 20 mg/L.

By inhibition is commonly meant the relative decrease from the control value, in per cent. As for `CCCCC[C@H](CC(=O)N1N=C[C@H](O)C[C@H]1C(=O)N[C@H]1COC(=O)[C@@H]2CCCNN2C(=O)[C@H](C)NC(=O)[C@@H](CC(C)C)NC1=O)C(=O)O`, the inhibition at 80 µM in the test with PANC-1 [5] amounted to 26%; with PANC-1 [8], 19%. In addition, the inhibition at 40 µM in the test with PANC-1 [6] and in the test with PANC-1 [7] was 11% in each case. The pIC50 in the test with PANC-1 [1] was under 4.00. Further, the result in the test on PANC-1 [3] was Active. Besides, the MIC in [4] was over 20 mg/L.

As usually defined, the MIC50 is an inhibitory concentration at the 50% level, which refers to growth in some studies and to a panel of isolates in others. A low value points to greater potency. In the case of `CCCCC[C@H](CC(=O)N1N=CCC[C@H]1C(=O)N[C@H]1COC(=O)[C@@H]2CCCNN2C(=O)[C@H](C)NC(=O)[C@@H](CC(C)C)NC1=O)C(=O)O`, the values for the inhibition at 80 µM in the test on PANC-1 [5] and in the test with PANC-1 [8] were 49% and 45%, respectively. Moreover, the inhibition at 40 µM is 36% in the test on PANC-1 [6] and 11% in the test on PANC-1 [7]. The MIC50 in test [9] turned out to be 12.5 mg/L (≈ 18.8 µM); in test [10], 31 mg/L (≈ 46.7 µM). Besides, in the test with PANC-1 [1], the pIC50 was under 4.00. The outcome in the test with PANC-1 [3] was Active. In addition, the MIC in test [4] is over 20 mg/L.
